# Test results published in paper PMC7673538 (PLoS Biology, 2020).
# Where “and” joins values, the source holds several entries; their conditions need not be identical. Equal entries are not always repeated. Where two headings read alike, the source gives them in different places.
# Assays:
# EV-D68 (strain Fermon) = format: cell-based, enterovirus D68
# in vitro = details: human
# CV-A24 = assay: microbe, parasite or virus in culture; format: cell-based, coxsackievirus A24; details: Enterovirus C
# CV-A24v = assay: microbe, parasite or virus in culture; format: cell-based, coxsackievirus A24v; details: for EC50: Coxsackievirus
# HRV-B14 = assay: microbe, parasite or virus in culture; format: cell-based, human rhinovirus
# CV-A24 (strain Joseph) = format: cell-based, coxsackievirus A24; details: compound concentration 1 µM
# PV-1 = assay: microbe, parasite or virus in culture; format: cell-based, poliovirus 1; details: for EC50: Enterovirus C
# EV-A71 = assay: microbe, parasite or virus in culture; format: cell-based, enterovirus A71
smiles,measurement,setting,value
"COc1ccc(N(Cc2ccc(F)cc2)C(=O)c2ccco2)cc1 [Compound 1, N-(4-fluorobenzyl)-N-(4-methoxyphenyl)furan-2-carboxamide]","virus titer, TCID50/ml (Figure 2A)",EV-D68 (strain Fermon); compound concentration 3 µM,31622.8 TCID50/ml and 21379.6 TCID50/ml and 35481.3 TCID50/ml
same,"virus titer, TCID50/ml (Figure 2A)",EV-D68 (strain Fermon); compound concentration 10 µM,31622.8 TCID50/ml and 21379.6 TCID50/ml and 35481.3 TCID50/ml
same,"virus titer, TCID50/ml (Figure 2A)",EV-D68 (strain Fermon); compound concentration 100 µM,31622.8 TCID50/ml and 21379.6 TCID50/ml and 35481.3 TCID50/ml
same,CC50,in vitro; CC50,> 30 µM
same,CC50,in vitro; CC50 Average,> 30 µM
same,CC50,in vitro; CC50 Experiement 3,> 30 µM
same,CC50,in vitro; CC50 Experiment 1,> 30 µM
same,CC50,in vitro; CC50 Experiment 2,> 30 µM
same,CC50,in vitro; CC50 HelaR19 Average,43.9 µM
same,CC50,in vitro; Exp 1 CC50,> 30 µM
same,CC50,in vitro; Exp 1 CC50 HelaR19,40.4 µM
same,CC50,in vitro; Exp2 CC50,> 30 µM
same,CC50,in vitro; Exp 2 CC50 HelaR19,47.4 µM
same,EC50,"CV-A24; CVA24, HeLa R19, read-out: EC50 CV-A24",> 30 µM
same,EC50,"CV-A24; CVA24, HeLa R19, read-out: EC50 CV-A24 Average",> 30 µM
same,EC50,"CV-A24; CVA24, HeLa R19, read-out: EC50 CV-A24 Experiement 3",> 30 µM
same,EC50,"CV-A24; CVA24, HeLa R19, read-out: EC50 CV-A24 Experiment 1",> 30 µM
same,EC50,"CV-A24; CVA24, HeLa R19, read-out: EC50 CV-A24 Experiment 2",> 30 µM
same,EC50,"CV-A24; CVA24, HeLa R19, read-out: EC50 CV-A24 strain Joseph",> 30 µM
same,"Figure 7 dose-response raw data, CV-A24v (triplicate values)",CV-A24v; Concentration 0.0046 µM,10.497 and 8.759 and 8.625
same,"Figure 7 dose-response raw data, CV-A24v (triplicate values)",CV-A24v; Concentration 0.0137 µM,9.388 and 8.898 and 11.4747
same,"Figure 7 dose-response raw data, CV-A24v (triplicate values)",CV-A24v; Concentration 0.0412 µM,9.388 and 8.898 and 11.4747
same,"Figure 7 dose-response raw data, CV-A24v (triplicate values)",CV-A24v; Concentration 0.1235 µM,8.529 and 8.161 and 15.8928
same,"Figure 7 dose-response raw data, CV-A24v (triplicate values)",CV-A24v; Concentration 0.3704 µM,10.8611 and 15.1565 and 15.6474
same,"Figure 7 dose-response raw data, CV-A24v (triplicate values)",CV-A24v; Concentration 1.1111 µM,10.0021 and 16.3837 and 13.9292
same,"Figure 7 dose-response raw data, CV-A24v (triplicate values)",CV-A24v; Concentration 11.1111 µM,8.182 and 7.259 and 9.382
same,EC50,"CV-A24v; HeLa R19, read-out: EC50 CV-A24v strain 110386",> 30 µM
same,EC50,"CV-A24v; HeLa R19, read-out: EC50 CV-A24v strain 110389",> 30 µM
same,EC50,"CV-A24v; HeLa R19, read-out: EC50 CV-A24v strain 110390",> 30 µM
same,EC50,"CV-A24v; HeLa R19, read-out: EC50 CV-A24v strain 110392",> 30 µM
same,inhibition of HRV-B14 replication (in words),HRV-B14,antiviral activity
same,"Figure 7 dose-response raw data, HRV_B14 (triplicate values)",HRV-B14; Concentration 0.0046 µM,15.2266 and 14.5606
same,"Figure 7 dose-response raw data, HRV_B14 (triplicate values)",HRV-B14; Concentration 0.0137 µM,15.2266 and 14.5606
same,"Figure 7 dose-response raw data, HRV_B14 (triplicate values)",HRV-B14; Concentration 0.0412 µM,15.2266 and 14.5606 and 20.943
same,"Figure 7 dose-response raw data, HRV_B14 (triplicate values)",HRV-B14; Concentration 0.3704 µM,23.8668 and 30.9898 and 27.193
same,"Figure 7 dose-response raw data, HRV_B14 (triplicate values)",HRV-B14; Concentration 1.1111 µM,29.6577 and 30.8788 and 30.9898
same,"Figure 7 dose-response raw data, HRV_B14 (triplicate values)",HRV-B14; Concentration 3.3333 µM,15.2266 and 14.5606
same,"Figure 7 dose-response raw data, HRV_B14 (triplicate values)",HRV-B14; Concentration 11.1111 µM,71.9426 and 62.9417 and 74.4773
same,"Figure 7 dose-response raw data, HRV_B14 (triplicate values)",HRV-B14; Concentration 33.3333 µM,100.034 and 89.1582 and 86.605
same,"Figure 7 dose-response raw data, HRV_B14 (triplicate values)",HRV-B14; Concentration 100 µM,104.147 and 89.1582 and 86.605
same,EC50,"HRV-B14; Human rhinovirus sp., HRVB14, HeLa R19, read-out: EC50 Exp1",10.8 µM
same,EC50,"HRV-B14; Human rhinovirus sp., HRVB14, HeLa R19, read-out: EC50 Exp2",13.9 µM
same,EC50,"HRV-B14; Human rhinovirus sp., HRVB14, HeLa R19, read-out: EC50 HRV-B14",10.8 ± 1.27 µM
same,EC50,"HRV-B14; Human rhinovirus sp., HRVB14, HeLa R19, read-out: EC50 HRV-B14 Experiement 3",11.1 µM
same,EC50,"HRV-B14; Human rhinovirus sp., HRVB14, HeLa R19, read-out: EC50 HRV-B14 Experiment 1",12.2 µM
same,EC50,"HRV-B14; Human rhinovirus sp., HRVB14, HeLa R19, read-out: EC50 HRV-B14 Experiment 2",9.16 µM
same,EC50,HRV-B14; read-out: EC50 HRV-B14,12.4 ± 1.51 µM
same,"virus titer, TCID50/ml (Figure 2A)",CV-A24 (strain Joseph),100000 TCID50/ml and 169824 TCID50/ml and 162341 TCID50/ml
same,"Figure 7 dose-response raw data, PV-1 (triplicate values)",PV-1; Concentration 0.0046 µM,10.497 and 8.759 and 8.625
same,"Figure 7 dose-response raw data, PV-1 (triplicate values)",PV-1; Concentration 0.0137 µM,10.497 and 8.759 and 8.625
same,"Figure 7 dose-response raw data, PV-1 (triplicate values)",PV-1; Concentration 0.0412 µM,10.497 and 11.7005 and 9.1598
same,"Figure 7 dose-response raw data, PV-1 (triplicate values)",PV-1; Concentration 0.1235 µM,10.7644 and 8.357 and 9.1598
same,"Figure 7 dose-response raw data, PV-1 (triplicate values)",PV-1; Concentration 0.3704 µM,13.4388 and 8.357 and 9.294
same,"Figure 7 dose-response raw data, PV-1 (triplicate values)",PV-1; Concentration 1.1111 µM,13.4388 and 8.357 and 9.294
same,"Figure 7 dose-response raw data, PV-1 (triplicate values)",PV-1; Concentration 3.3333 µM,10.497 and 11.7005 and 9.1598
same,"Figure 7 dose-response raw data, PV-1 (triplicate values)",PV-1; Concentration 11.1111 µM,10.7644 and 8.357 and 9.1598
same,"Figure 7 dose-response raw data, PV-1 (triplicate values)",PV-1; Concentration 33.3333 µM,13.4388 and 8.357 and 9.294
same,"Figure 7 dose-response raw data, PV-1 (triplicate values)",PV-1; Concentration 100 µM,9.294 and 9.1598
same,EC50,"PV-1; HeLa R19, read-out: EC50 PV-1",> 30 µM
same,EC50,"PV-1; HeLa R19, read-out: EC50 PV-1 Average",> 30 µM
same,EC50,"PV-1; HeLa R19, read-out: EC50 PV-1 Experiement 3",> 30 µM
same,EC50,"PV-1; HeLa R19, read-out: EC50 PV-1 Experiment 1",> 30 µM
same,EC50,"PV-1; HeLa R19, read-out: EC50 PV-1 Experiment 2",> 30 µM
same,"Figure 7 dose-response raw data, EV-A71 (triplicate values)",EV-A71; Concentration 0.0046 µM,12.0987 and 12.2161 and 13.2733
same,"Figure 7 dose-response raw data, EV-A71 (triplicate values)",EV-A71; Concentration 0.0137 µM,11.5913 and 20.0727 and 21.6478
